Where two headings read alike, the source gives them in different places.
Tests used:
[1] = biological target: T1, HCV NS3 helicase NS3h_1b(con1) (Hepatitis C virus genotype 1b, UniProt Q9WMX2); assay: biochemical; type: biochemical, hepatitis C virus genotype 1b(con1)
T1 construct: truncated C-terminally His-tagged NS3 proteins lacking the N-terminal protease, called NS3h; His-tag (C); made in house
In short: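 Molecular beacon helicase assay with His-tagged recombinant NS3 and a Cy5/IBRQ-labelled partially duplex DNA substrate (25 bp) or Tye665-labelled RNA substrate (19 bp). Reactions started with 1 mM ATP. Screening read fluorescence before and 30 min after ATP (ex 643/em 670 nm). For IC50, 5% v/v DMSO was present, initial velocities came from first-order decay fits, and a Hill equation was applied.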

Huh-7.5 cells = assay: Cell viability assay ([…]-GLO); type: cell-based, human; details: for Cell viability (% viable): 10 μM compound, triplicate, average ± SD
Protocol: To assess compound toxicity toward Huh-7.5 cells, cells were plated and treated as above and cell viability was assessed using the […]-GLO luminescent cell viability kit (PROMEGA) following the manufacturer's instructions. Briefly, at the end of a 72 hour incubation period, the medium was aspirated and the cells were washed with 1×PBS, then an equal volume of growth medium and […]-GLO reagent was added and the lysis was initiated by mixing on an orbital shaker. The plate was incubated at 23° C. for 30 minutes and the luciferase activity was measured for 1 second using the FLUOSTAR Omega microplate reader (BMG Labtech).

[2] = biological target: T2, E. coli SSB-Cy5-dT15 complex (Escherichia coli, UniProt P0AGE0); assay: Escherichia coli SSB Cy5-dT15 binding assay (fluorescence polarization); details: for inhibition at 100 µM: read-out: SSB % Displaced @ 100 μM
T2 construct: purchased Promega
T2 sequence (P0AGE0 2-178, one chain of several): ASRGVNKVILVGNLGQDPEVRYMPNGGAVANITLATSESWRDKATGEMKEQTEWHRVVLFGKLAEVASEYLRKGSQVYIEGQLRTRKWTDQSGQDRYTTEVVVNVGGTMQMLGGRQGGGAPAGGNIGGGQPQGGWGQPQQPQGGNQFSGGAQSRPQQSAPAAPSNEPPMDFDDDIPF
Protocol: The Escherichia coli SSB assay was performed in a total volume of 20.2 μl in 384-well, flat-bottom, low volume, black microplates (Greiner Bio-One). First, 20 μl of a assay solution (5 nM Cy5-[…]-3′ (Cy5-dT15, SEQ ID NO:5), 20 nM E. coli SSB (Promega), 25 mM MOPS, pH 7.5, 1.25 mM MgCl2, 0.0025 mg/ml BSA, 0.005% (v/v) TWEEN 20 and 0.025 mM DTT) was dispensed in each well, then 0.2 μl of dimethylsulfoxide (DMSO) or compound dissolved in DMSO was added by pin transfer, such that the final concentration of DMSO was 1% (v/v) in each assay.
For IC50 determination, assays were performed with 60 μl total volume in black flat bottomed 384-well microplates (Corning). First, 3.0 μl of DMSO or compound dissolved in DMSO was added, such that the final concentration of DMSO was 5% (v/v) in each assay. Then 57 μl of a assay solution (5 nM Cy5-dT15, 20 nM SSB, 25 mM MOPS, pH 7.5, 1.25 mM MgCl2, 0.0025 mg/ml BSA, 0.005% (v/v) TWEEN 20 and 0.025 mM DTT) was dispensed in each well. Polarization was monitored with a TECAN Infinite M1000 PRO multi-mode microplate reader by exciting at 635 nm (5 nm bandwidth) and measuring total fluorescence intensity, parallel and perpendicular polarized light at 667 nm (20 nm bandwidth).

MBHA DNA substrate = assay: Modified FID assay, SYBR Green I; type: binding; details: for DNA binding (%): SYBR Green I-FID, average (±SD) percent bound at 100 μM
In short: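 Affinity for the MBHA DNA substrate (0.32 μM) estimated by displacement of SYBR Green I (0.68 μM), ethidium bromide omitted. Each compound titrated in triplicate over three independent runs; EC50 from concentration-response fit, reported ± standard deviation.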

[3] = DNA-based MBHA, genotype 1b, read-out: DNA Helicase NS3h_1b IC50 (μM) ± SD
[4] = MBHA, DNA unwinding, mean ± SD of three titrations, read-out: Helicase IC50
[5] = genotype 1b (con1), read-out: Target Potency MBHA (IC50 avg., μM) 1b (con1)
[6] = standard HCV helicase MBHA (Table 9), read-out: DNA Unwinding IC50
[7] = disruption of Cy5-dT15-SSB complex, read-out: Cy5-dT15-SSB Binding IC50
[8] = SYBR Green, read-out: FID (SG) EC50 (converted)
[9] = DNA Unwinding IC50, standard HCV helicase MBHA (Table 9)
[10] = Helicase IC50, MBHA, DNA unwinding, mean ± SD of three titrations
[11] = Target Potency MBHA (IC50 avg., μM) 1b (con1), genotype 1b (con1)

T1 sequence (Q9WMX2 1192-1657): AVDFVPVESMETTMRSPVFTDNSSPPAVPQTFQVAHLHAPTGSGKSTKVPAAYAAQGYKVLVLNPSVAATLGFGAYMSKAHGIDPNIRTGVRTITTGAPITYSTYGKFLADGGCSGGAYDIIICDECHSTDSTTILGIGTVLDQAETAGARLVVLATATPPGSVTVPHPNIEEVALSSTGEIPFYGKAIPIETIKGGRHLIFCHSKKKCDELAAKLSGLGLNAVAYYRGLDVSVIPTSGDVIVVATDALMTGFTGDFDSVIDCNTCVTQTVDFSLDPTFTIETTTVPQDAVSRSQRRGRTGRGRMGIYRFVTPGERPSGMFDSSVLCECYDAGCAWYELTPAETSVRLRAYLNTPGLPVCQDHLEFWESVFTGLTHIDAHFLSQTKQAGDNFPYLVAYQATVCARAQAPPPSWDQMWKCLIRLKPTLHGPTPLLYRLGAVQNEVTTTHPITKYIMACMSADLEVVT

SMILES | IC50 [1, 3] | IC50 [1, 4] | IC50 [1, 5] | IC50 [1, 6] | Cell Viability (% @ 10 μM) (Huh-7.5 cells) | Cell viability (% viable) (Huh-7.5 cells) | IC50 [2, 7] | inhibition at 100 µM [2] | EC50 ([2]; read-out: SSB EC50) | DNA binding (%) (MBHA DNA substrate) | FID (SG) % Displaced @ 100 μM (MBHA DNA substrate; SYBR Green) | EC50 (MBHA DNA substrate; [8]) | IC50 [1, 9] | IC50 [1, 10] | IC50 [1, 11] | EC50 [2] | IC50 [2] | EC50 (MBHA DNA substrate; FID, mean ± SD, read-out: DNA Binding (SYBR Green I) EC50)
Cc1ccc2nc(-c3ccc4nc(-c5ccc(NC(=O)c6ccc(F)cc6)cc5)sc4c3)sc2c1S(=O)(=O)O.N [Compound 7, 2′-(4-(4-fluorobenzamido)phenyl)-6-methyl-[2, bibenzo[d]thiazole]-7-sulfonic acid] | 5 ± 0.6 µM | 5.2 ± 0.6 µM | 5.2 ± 0.6 µM | 5 ± 1 µM | 94 ± 2% | 94 ± 2% | 14 ± 4 µM | 88% | 14 ± 4 µM | 35 ± 15% | 35 ± 15% | > 100 µM | – | – | – | – | – | –
COc1ccc(C(=O)Nc2ccc(-c3nc4ccc(-c5nc6ccc(C)c(S(=O)(=O)O)c6s5)cc4s3)cc2)cc1 [Compound 8, 2′-(4-(4-methoxybenzamido)phenyl)-6-methyl-[2,6′-bibenzo[d]thiazole]-7-sulfonic acid] | – | – | – | – | 85 ± 5% | 85 ± 5% | – | 92% | – | 35 ± 10% | 35 ± 10% | > 100 µM | 10 ± 3 µM | 10 ± 2.6 µM | 10 ± 2.6 µM | 2 ± 1 µM | 2 ± 1 µM | –
COC(=O)c1ccc(C(=O)Nc2ccc(-c3nc4ccc(-c5nc6ccc(C)c(S(=O)(=O)O)c6s5)cc4s3)cc2)cc1 [Compound 9, 2′-(4-(4-(methoxycarbonyl)benzamido)phenyl)-6-methyl-[2,6′-bibenzo[d]thiazole]-7-sulfonic acid] | – | 9.7 ± 4.6 µM | 9.7 ± 4.6 µM | 10 ± 5 µM | 101 ± 8% | 101 ± 8% | 1 µM | 91% | 2 ± 0.5 µM | 28 ± 10% | 28 ± 10% | > 100 µM | – | – | – | – | – | –
Cc1ccc2nc(-c3ccc4nc(-c5ccc(NC(=O)c6ccc(Cl)cc6)cc5)sc4c3)sc2c1S(=O)(=O)O [Compound 10, 2′-(4-(4-chlorobenzamido)phenyl)-6-methyl-[2,6′-bibenzo[d]thiazole]-7-sulfonic acid] | – | – | – | – | 84 ± 6% | 84 ± 6% | – | 80% | – | 67 ± 17% | 67 ± 17% | 31 ± 15 µM | 3 µM | 3.4 ± 0.3 µM | 3.4 ± 0.3 µM | 46 ± 52 µM | 46 ± 52 µM | –
Cc1ccc(C(=O)Nc2ccc(-c3nc4ccc(-c5nc6ccc(C)c(S(=O)(=O)O)c6s5)cc4s3)cc2)cc1 [Compound 11, 6-methyl-2′-(4-(4-methylbenzamido)phenyl)-[2,6′-bibenzo[d]thiazole]-7-sulfonic acid] | – | 3.3 ± 0.3 µM | 3.3 ± 0.3 µM | 3 µM | 87 ± 4% | 87 ± 4% | 5 ± 2 µM | 96% | 5 ± 2 µM | 50 ± 15% | 50 ± 15% | > 100 µM | – | – | – | – | – | > 100 µM
Cc1ccc2nc(-c3ccc4nc(-c5ccc(NC(=O)c6ccc(C(F)(F)F)cc6)cc5)sc4c3)sc2c1S(=O)(=O)O [Compound 12, 6-methyl-2′-(4-(4-(trifluoromethyl)benzamido)phenyl)-[2,6′-bibenzo[d]thiazole]-7-sulfonic acid] | 2 ± 0.4 µM | 1.8 ± 0.4 µM | 1.8 ± 0.4 µM | 2 µM | 90 ± 4% | 90 ± 4% | 3 µM | 80% | 4 ± 2 µM | 69 ± 9% | 69 ± 9% | 29 ± 9 µM | – | – | – | – | – | –
Cc1ccc2nc(-c3ccc4nc(-c5ccc(NC(=O)c6ccc(C(C)(C)C)cc6)cc5)sc4c3)sc2c1S(=O)(=O)O [Compound 13, 2′-(4-(4-(tert-butyl)benzamido)phenyl)-6-methyl-[2,6′-bibenzo[d]thiazole]-7-sulfonic acid] | 8 ± 1 µM | 8.2 ± 1 µM | 8.2 ± 1 µM | 8 ± 1 µM | 87 ± 4% | 87 ± 4% | 32 ± 7 µM | 80% | 32 ± 7 µM | 72 ± 19% | 72 ± 19% | 16 ± 6 µM | – | – | – | – | – | –
Cc1ccc2nc(-c3ccc4nc(-c5ccc(NC(=O)c6ccc(N(C)C)cc6)cc5)sc4c3)sc2c1S(=O)(=O)O [Compound 14, 2′-(4-(4-(dimethylamino)benzamido)phenyl)-6-methyl-[2,6′-bibenzo[d]thiazole]-7-sulfonic acid] | – | 11 ± 6.7 µM | 11 ± 6.7 µM | 11 ± 7 µM | 94 ± 5% | 94 ± 5% | 4 ± 1 µM | 98% | 4 ± 1 µM | 44 ± 4% | 44 ± 4% | > 100 µM | – | – | – | – | – | –
Cc1ccc2nc(-c3ccc4nc(-c5ccc(NC(=O)c6ccc(Br)cc6)cc5)sc4c3)sc2c1S(=O)(=O)O [Compound 15, 2′-(4-(4-bromobenzamido)phenyl)-6-methyl-[2,6′-bibenzo[d]thiazole]-7-sulfonic acid] | 5 ± 3.9 µM | 5.2 ± 4 µM | 5.2 ± 4 µM | 5 ± 4 µM | 113 ± 5% | 113 ± 5% | 27 ± 6 µM | 91% | 27 ± 6 µM | 70 ± 9% | 70 ± 9% | 30 ± 13 µM | – | – | – | – | – | –
